Results on 12 compounds are retold here after ChEMBL document CHEMBL5226345, “Lactate dehydrogenase and malate dehydrogenase: Potential antiparasitic targets for drug development studies” (Bioorg Med Chem, 2021).

In general, pIC50 refers to −log10 of the IC50, conventionally taken in molar units.

Assay [1] can be described thus: Inhibition of recombinant his tagged Cryptosporidium parvum LDH expressed in Escherichia coli by spectrophotometric based assay.
The nature of assay [2]: Inhibition of Plasmodium falciparum LDH.
Assay [3] in a line: Inhibition of Plasmodium falciparum MDH.
Assay [4] can be described thus: Inhibition of Plasmodium falciparum LDH by ELISA method.
Assay [5] is described as follows: Inhibition of Trichomonas vaginalis LDH.
Assay [6] can be described thus: Inhibition of Schistosoma LDH.
Assay [7] is described as follows: Inhibition of Toxoplasma gondii LDH2.
The nature of assay [8]: Inhibition of Toxoplasma gondii LDH1.

pIC50: −log10 of the molar value.

Consider `O=C(CSc1ccccc1)Nc1cccc2ccccc12`, for which the pIC50 in assay [1] is 4.10.
Turning to `COc1ccc(CNC(=O)C2=CC(=O)c3c(O)cc(OCCc4ccc(NC(=O)C(=O)O)c(C)c4)cc3C2)cc1`, the results for the pIC50 in assay [2] and in assay [3] were 5.76 and 5.58, respectively.
The compound `CCC(C)n1ncn(-c2ccc(N3CCN(c4ccc(OCC5COC(Cn6cncn6)(c6ccc(Cl)cc6Cl)O5)cc4)CC3)cc2)c1=O` (stereo not drawn) [ITRACONAZOLE] gave a pIC50 in assay [4] of 5.03.
For the compound `O=C(Nc1ccccc1)c1nnn(-c2ccnc3cc(Cl)ccc23)c1-c1ccccc1`, the negative logarithm of the IC50 (pIC50) in assay [5] is 4.00.
For the compound `c1ccc2[nH]cnc2c1` [BENZIMIDAZOLE], the IC50 result in assay [6] is “Not Active”.
With `CCCc1c(O)c(O)c(C(=O)O)c2cc(Cc3ccccc3)c(C)cc12`, the negative-log IC50 (pIC50) in assay [7] is 6.05; in assay [2] it was 6.85; in assay [1], 4.40; in assay [8] it was 5.46.
With `O=C(C1CCCCC1)N1CC(=O)N2CCc3ccccc3C2C1` (stereo not drawn) [PRAZIQUANTEL], the IC50 result in assay [6] was “Not Active”.
With `CC[C@@H]([C@H](C)O)n1ncn(-c2ccc(N3CCN(c4ccc(OC[C@@H]5CO[C@@](Cn6cncn6)(c6ccc(F)cc6F)C5)cc4)CC3)cc2)c1=O` [POSACONAZOLE], the pIC50 in assay [4] was 5.59.
In assay [4], `CC(C)c1c(C(=O)Nc2ccccc2)c(-c2ccccc2)c(-c2ccc(F)cc2)n1CC[C@@H](O)C[C@@H](O)CC(=O)O` [ATORVASTATIN] showed a pIC50 of 4.88.
In the case of `O=C1c2ccccc2C(=O)c2c(O)c(O)cc(O)c21` [PURPURIN], the pIC50 in assay [1] was 4.33.
Take `Cc1cc2c(C(C)C)c(O)c(O)c(C=O)c2c(O)c1-c1c(C)cc2c(C(C)C)c(O)c(O)c(C=O)c2c1O` [GOSSYPOL]: the values for the pIC50 in assay [7], in assay [1] and in assay [8] were 7.00, 4.93 and 6.15, respectively.
As for `NC(=O)C(=O)O` [OXAMATE], in assay [3], the negative-log IC50 (pIC50) is 5.58.
